Laboratory results published in the supplement of paper PMC10331698.
± gives the standard deviation of the averaged measurements.

Tests used:
Experiment in all cases: LOEC (log10 uM (lowest observed effect concentration))
[1] = compound: C=CC(=O)OCC(F)(F)C(F)(F)C(F)(F)C(F)(F)COC(=O)C=C [1H,1H,6H,6H-Perfluorohexane-1,6-diol diacrylate]
Protocol: (§1)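 BioMAP Diversity Plus panel in human primary cell co-cultures, 4 concentrations in duplicate blinded samples. Responses are log10 fold change versus DMSO control, processed with tcpl v2.1.0. A hit is called when responses at any concentration exceed the cutoff (the larger of 3*bmad or log10(1.2)); the lowest observed effect concentration (modl_ga, log10 uM) is reported for hits.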

[2] = compound: Cc1ccc(S(=O)(=O)OCC(F)(F)C(F)(F)C(F)(F)C(F)(F)C(F)(F)C(F)F)cc1 [1H,1H,7H-Perfluoroheptyl 4-methylbenzenesulfonate]
Protocol: as §1

[3] = compound: FC(F)(I)C(F)(F)C(F)(F)C(F)(F)C(F)(F)C(F)(F)I [1,6-Diiodoperfluorohexane]
Protocol: as §1

[4] = compound: O=C(CC(=O)C(F)(F)C(F)(F)C(F)(F)F)c1cccs1 [(Perfluorobutyryl)-2-thenoylmethane]
Protocol: as §1

Perfluoropinacol = compound: OC(C(F)(F)F)(C(F)(F)F)C(O)(C(F)(F)F)C(F)(F)F [Perfluoropinacol]
Protocol: as §1

[5] = compound: OCCC(F)(F)C(F)(F)C(F)(F)C(F)(F)C(F)(F)C(F)(F)C(F)(F)C(F)(F)F [8:2 Fluorotelomer alcohol]
Protocol: as §1

[6] = compound: OCCCC(F)(F)C(F)(F)C(F)(F)C(F)(F)C(F)(F)C(F)(F)C(F)(F)C(F)(F)F [3-(Perfluorooctyl)propanol]
Protocol: as §1

[7] = compound: C=CC(=O)OCC(F)(F)C(F)(F)C(F)(F)C(F)(F)C(F)(F)C(F)(F)C(F)(F)C(F)F [1H,1H,9H-Perfluorononyl acrylate]
Protocol: as §1

[8] = compound: OCC(F)(F)C(F)(F)C(F)(F)C(F)(F)C(F)(F)C(F)(F)C(F)(F)C(F)(F)CO [1H,1H,10H,10H-Perfluorodecane-1,10-diol]
Protocol: as §1

[9] = compound: O=S(=O)(OCC(F)(F)F)C(F)(F)C(F)(F)C(F)(F)C(F)(F)F [2,2,2-Trifluoroethyl perfluorobutanesulfonate]
Protocol: as §1

[10] = compound: FC(F)(F)C(F)(F)C(F)(F)C(F)(F)CCI [1H,1H,2H,2H-Perfluorohexyl iodide]
Protocol: as §1

[11] = compound: OCC(F)(F)C(F)(F)C(F)(F)C(F)(F)C(F)(F)C(F)(F)C(F)(F)C(F)(F)C(F)(F)C(F)(F)C(F)(F)F [11:1 Fluorotelomer alcohol]
Protocol: as §1

[12] = compound: OCC(F)(F)C(F)(F)C(F)(F)C(F)(F)C(F)(F)C(F)(F)F [6:1 Fluorotelomer alcohol]
Protocol: as §1

[13] = compound: O=C(O)C(F)(F)C(F)(F)C(F)(F)C(F)(F)C(F)(F)C(F)(F)C(F)(F)F [Ammonium perfluorooctanoate]
Protocol: as §1

Perfluorooctanoic acid = compound: O=C(O)C(F)(F)C(F)(F)C(F)(F)C(F)(F)C(F)(F)C(F)(F)C(F)(F)F [Perfluorooctanoic acid]
Protocol: as §1

Test System	LOEC (log10 uM) [1]	LOEC (log10 uM) [2]	LOEC (log10 uM) [3]	LOEC (log10 uM) [4]	LOEC (log10 uM) (Perfluoropinacol)	LOEC (log10 uM) [5]	LOEC (log10 uM) [6]	LOEC (log10 uM) [7]	LOEC (log10 uM) [8]	LOEC (log10 uM) [9]	LOEC (log10 uM) [10]	LOEC (log10 uM) [11]	LOEC (log10 uM) [12]	LOEC (log10 uM) [13]	LOEC (log10 uM) (Perfluorooctanoic acid)
SAg SRB down	1.3	1.78	1.78	1.3	1.3	1.3	1.3	–	–	–	–	–	–	–	–
MyoF VCAM1 down	0.845	–	0.573 ± 0.39	–	1.78	1.3	1.07 ± 0.32	1.78	1.78	–	–	–	–	–	–
BF4T VCAM1 down	0.845	–	1.3	1.3	1.78	1.07 ± 0.32	1.3	–	1.3	–	–	–	–	–	–
LPS TNFa down	1.3	–	1.3	–	–	1.78	0.573 ± 0.39	–	–	1.78	–	–	–	–	–
hDFCGF MIG down	0.301	–	0.845	1.3	1.78	1.3	1.07 ± 0.32	1.54 ± 0.34	1.78	–	1.78	–	–	–	–
SAg PBMCCytotoxicity down	1.07 ± 0.32	–	1.3	1.78	–	1.3	1.3	1.54 ± 0.34	1.78	–	–	-1.22	–	–	–
BT xIL17F down	0.573 ± 0.39	–	1.54 ± 0.34	1.3	1.54 ± 0.34	1.78	1.3	1.3	1.78	–	–	–	1.78	–	–
BE3C ITAC down	1.78	–	1.54 ± 0.34	1.3	1.78	1.3	1.78	–	1.3	–	–	–	–	–	–
3C Thrombomodulin down	–	–	–	–	–	–	1.78	1.54 ± 0.34	–	–	–	–	–	–	–
4H Pselectin down	1.07 ± 0.32	–	1.3	1.3	1.3	1.3	1.3	–	–	–	–	–	1.78	–	–
3C Proliferation down	0.573 ± 0.39	–	1.3	0.845	0.845	1.3	0.845	1.3	1.04 ± 1	–	–	-0.96 ± 0.37	1.78	–	–
hDFCGF CollagenIII down	–	–	0.845	1.3	1.78	1.3	1.3	–	1.78	–	–	–	1.31 ± 0.66	1.78	–
BE3C MMP1 up	1.3	–	–	–	–	–	–	–	–	–	–	–	–	1.3	1.78
BF4T tPA down	1.3	–	0.845	0.573 ± 0.39	–	1.07 ± 0.32	1.3	–	1.3	–	–	–	–	–	1.31 ± 0.66
IMphg MCP1 down	1.31 ± 0.66	–	1.3	1.3	1.3	1.78	1.3	–	1.78	–	–	–	–	–	–
MyoF CollagenIII down	1.3	–	0.845	1.3	1.3	1.3	1.3	1.78	1.78	–	–	–	–	–	–
BT Bcell Proliferation up	–	–	–	–	–	–	–	–	–	–	–	–	–	–	1.78
BE3C uPAR down	1.78	–	1.78	1.78	1.3	1.54 ± 0.34	1.78	–	1.78	–	–	–	–	–	–
BT xIL17A down	0.845	–	1.78	1.3	1.3	1.78	1.3	1.54 ± 0.34	1.78	–	–	–	–	–	–
IMphg CD40 down	1.3	–	1.3	1.3	1.3	1.78	1.3	–	1.54 ± 0.34	–	–	0.301	–	–	–
hDFCGF VCAM1 down	0.301	–	0.845	–	1.3	1.3	0.845	1.3	1.54 ± 0.34	–	1.78	–	1.78	–	–
MyoF ACTA1 down	0.845	–	0.573 ± 0.39	–	1.3	1.3	1.07 ± 0.32	1.78	1.78	–	–	–	–	–	–
LPS IL1a down	1.3	–	1.3	–	–	1.3	0.845	–	–	1.54 ± 0.34	–	-0.222	–	–	–
BF4T MCP1 down	1.3	1.3	0.845	1.07 ± 0.32	1.78	1.3	1.3	–	1.07 ± 0.32	–	–	–	–	–	–
SAg CD40 down	1.07 ± 0.32	–	1.78	0.845	1.3	1.54 ± 0.34	1.54 ± 0.34	1.78	–	–	–	–	–	–	–
hDFCGF TIMP2 down	1.07 ± 0.32	–	–	1.07 ± 0.32	1.3	0.801 ± 0.71	1.3	–	–	–	1.78	–	–	–	–
hDFCGF Proliferation down	0.301	–	0.301	0.845	0.845	0.845	0.845	1.3	1.54 ± 0.34	–	–	–	1.78	–	–
BE3C HLADR down	1.3	–	1.54 ± 0.34	1.3	1.78	1.3	1.78	–	1.3	–	–	-0.46 ± 0.34	–	–	–
LPS IL8 up	–	–	–	–	–	–	–	–	–	–	–	–	–	–	1.78
hDFCGF MCP1 down	0.845	1.07 ± 0.32	0.845	1.3	–	1.3	0.845	–	1.54 ± 0.34	–	–	–	–	–	–
